{"source": "patent US20230398126A1", "about": "(priority 2022, published 2023)", "key": {"[1]": {"tested_on": "MP12 vaccine and its divergents", "details": "cited from earlier work"}, "virulent RVFVs": {"tested_on": "virulent RVFVs", "details": "cited from earlier work"}, "MP12 virus": {"tested_on": "MP12 virus", "experiment": "microbe, parasite or virus in culture", "type": "cell-based", "details": "Rift Valley fever virus, Vero C1008"}, "in vitro": {"experiment": "in vitro", "details": "African green monkey"}}, "data": [{"smiles": "O=c1cnn([C@@H]2O[C@H](CO)[C@@H](O)[C@H]2O)c(=O)[nH]1", "note": "[Compound 6-azauridine, 6-azauridine]", "values": [{"measurement": "inhibition of MP12 vaccine and its divergents", "setting": "[1]", "value": "inhibited"}, {"measurement": "antiviral activity on tested virulent RVFVs", "setting": "virulent RVFVs", "value": "antiviral activity"}]}, {"smiles": "NC(=O)c1ncn([C@@H]2O[C@H](CO)[C@@H](O)[C@H]2O)n1", "note": "[Ribavirin]", "values": [{"measurement": "inhibition of MP12 vaccine and its divergents", "setting": "[1]", "value": "inhibited"}, {"measurement": "antiviral activity on tested virulent RVFVs", "setting": "virulent RVFVs", "value": "antiviral activity"}]}, {"smiles": "CN1C(=O)c2cccnc2Sc2cc(C(=O)Nc3ccc(Cl)cc3)ccc21", "note": "[WMA-RV1]", "values": [{"measurement": "EC50", "setting": "MP12 virus", "value": 0.863, "unit": "µM"}, {"measurement": "CC50", "setting": "in vitro", "value": 320, "unit": "µM"}]}, {"smiles": "NC(=O)c1ccc2c(c1)n(Cc1cccc(F)c1)c(=O)c1ccnn12", "note": "[WMA-RV2]", "values": [{"measurement": "EC50", "setting": "MP12 virus", "value": 6.96, "unit": "µM"}, {"measurement": "CC50", "setting": "in vitro", "value": "> 1280", "unit": "µM"}]}, {"smiles": "CC(Cl)C(=O)N1CCCN(c2nc3ccccc3nc2-c2ccccc2)CC1", "note": "(centres unmarked) [WMA-RV3]", "values": [{"measurement": "EC50", "setting": "MP12 virus", "value": 2.08, "unit": "µM"}, {"measurement": "CC50", "setting": "in vitro", "value": 363, "unit": "µM"}]}, {"smiles": "CC(Cl)C(=O)N1CCN(c2nccc(-c3ccc(C(C)(C)C)cc3)n2)CC1", "note": "(centres unmarked) [WMA-RV4]", "values": [{"measurement": "EC50", "setting": "MP12 virus", "value": 3.19, "unit": "µM"}, {"measurement": "CC50", "setting": "in vitro", "value": 168, "unit": "µM"}]}, {"smiles": "Cc1cc(C)c(C)c(S(=O)(=O)N2CCC(c3c[nH]c4c(C)cccc34)CC2)c1C", "note": "[WMA-RV5]", "values": [{"measurement": "EC50", "setting": "MP12 virus", "value": 9.14, "unit": "µM"}, {"measurement": "CC50", "setting": "in vitro", "value": "> 1280", "unit": "µM"}]}, {"smiles": "Cc1ccc(CN2CCCN(c3ccc(NC(=O)c4ccccc4C)cn3)CC2)cc1", "note": "[WMA-RV6]", "values": [{"measurement": "EC50", "setting": "MP12 virus", "value": 1.03, "unit": "µM"}, {"measurement": "CC50", "setting": "in vitro", "value": 692, "unit": "µM"}]}, {"smiles": "Cc1ccccc1CN1CCCN(c2cccc(NC(=O)c3cccs3)c2)C1=O", "note": "[WMA-RV7]", "values": [{"measurement": "EC50", "setting": "MP12 virus", "value": 15.5, "unit": "µM"}, {"measurement": "CC50", "setting": "in vitro", "value": "> 1280", "unit": "µM"}]}, {"smiles": "Cc1nn(-c2ccccc2)c2sc(C(=O)NC(C)C)cc12", "note": "[WMA-RV8]", "values": [{"measurement": "EC50", "setting": "MP12 virus", "value": 13, "unit": "µM"}, {"measurement": "CC50", "setting": "in vitro", "value": "> 1280", "unit": "µM"}]}]}
